Reference: patent US10087225B2, “Formulation of MK2 inhibitor peptides” (MOERAE MATRIX, INC., priority 2015, dated 2018)
Peptide text beside a SMILES is read from it.

Key:
[1] = in vitro; conditions: human, HCAVSMCs
Experimental: 200 μL of cell suspension (at 10,000 cells/well) were seeded onto 96-well plates to yield an approximate 70% confluence per well. Cells were allowed to adhere to the plate overnight. […] Treatments were subsequently removed and the cells were cultured in fresh complete growth medium for 24 hours. Cells were then washed 2× with PBS +/+ and cell viability was then determined by a CytoTox-ONE Homogenous Membrane Integrity assay (Promega) according to the manufacturer's protocol. Briefly, 100 μL of Ambion KDalert Lysis Buffer was added to each well, and then 100 μL of freshly prepared CytoTox-ONE reagent was added to each well. After 10 minutes of incubation, 50 μL of stop solution was added, and the fluorescence of each well (kλex=560 nm, λem, =590 nm) was determined with a TECAN Infinite M1000 Pro plate reader.

[2] = system: HCAVSMCs; conditions: human, 72 h
Experimental: For MK2i-NP and HSP20-NP studies, An amine-reactive Alexa-488 succinimidyl ester (Life Technologies) was dissolved in DMSO and mixed at a 1 to 3 molar ratio with the MK2i or p-HSP20 peptide in 100 mM sodium bicarbonate buffer (pH=8.3) and allowed to react for 3 hours. Unreacted fluorophore and organic solvent were removed using a PD-10 miditrap G-10 desalting column, and the fluorescently labeled MK2i and p-HSP20 peptides were lyophilized. […] Similarly, PPAA was mixed with fluorescently labeled p-HSP20 at a CR of [NH3^+]/[COO^−]=1:3 and syringe filtered through a 0.45 μm PTFE filter to form fluorescent HSP20-NPs. HCAVSMCs were grown to 80-90% confluence, harvested, and seeded at 20,000 cells/well in a 24 well plate and allowed to adhere overnight. […] Following treatment, cells were washed 2× in PBS, and either immediately harvested or incubated in complete growth media for an additional 72 hours. Cells were harvested with 0.05% trypsin-EDTA, centrifuged, and suspended in 0.1% Trypan blue in PBS (−/−) for analysis on a FACSCalibur flow cytometer (Becton Dickinson) with BD CellQuest™ Pro software (V 5.2). Data was exported and analyzed with FlowJo software (V 7.6.4). All samples were run in triplicate.

[3] = system: human saphenous vein (HSV); test: Inhibition of phenylephrine-induced HSV contraction; conditions: 2 h treatment
Experimental: Prior to experiments, HSV viability was confirmed. HSV rings were weighed and their lengths recorded. […] The rings were stretched and the length progressively adjusted until maximal tension was obtained 49. Normalized reactivity was obtained by determining the passive length-tension relationship for each vessel segment. Rings were maintained at a resting tension of 1 g, which produces maximal responses to contractile agonists, as previously determined, and equilibrated for 2 h in buffer. Force measurements were obtained using a Radnoti Glass Technology (Monrovia, Calif.) force transducer (159901A) interfaced with a Powerlab data acquisition system and LabChart software (AD Instruments, Colorado Springs, Colo.).
HSV rings were initially isometrically contracted with 110 mM KCl (with equimolar replacement of NaCl in bicarbonate buffer), and the generated force was measured. 110 mM KCl causes membrane depolarization, leading to contraction of vessels containing functionally viable smooth muscle. […]
Viable HSV rings were washed, allowed to equilibrate in bicarbonate solution for 30 min, and then contracted with phenylephrine (PE, 1 μM). […] Treated HSV rings were then contracted with the same doses of PE, and the forces generated were again recorded. […]

[4] = system: HCAVSMCs; test: Cytosolic vs. organelle bound peptide by digitonin semi-permeabilization; assay type: cell-based, human; conditions: Bafilomycin treatment
Experimental: In order to quantify the cytosolic bioavailability of the MK2i and HSP20 peptides a method to separate cytosolic and organelle bound (i.e. endosomal, lysosomal, golgi, etc.) peptide was adapted from the methods developed by Liu et a140. The procedure was optimized for this experiment based upon LDH release from HCAVSMCs treated with varying concentrations of digitonin (Calbiochem) in buffer (150 mM NaCl, 0.2 mM EDTA, 20 mM HEPES-NaOH (pH 7.4), 2 mM DTT and 2 mM MgCL2) on ice for 10 mins on a rotary shaker operating at 100 RPM (supplementary FIG. 3). A concentration of 25 μg/mL was then chosen as the optimal digitonin concentration for selective semi-permeabilization of the HCAVSMC membrane and subsequently used for the analysis of intracellular peptide distribution.
To quantify intracellular distribution of the MK2i and p-HSP20 peptides, HCAVSMCs were seeded into a 96 well plate at a density of 20,000 cells/cm2 and allowed to adhere overnight in complete growth medium. A portion of the cells were pretreated with 500 nM Bafilomycin A1 (Sigma) for 30 minutes, and the Bafilomycin was included in subsequent peptide/NP treatment and in the post-treatment incubation phase to inhibit endosomal acidification. […] Treatments were removed and cells were incubated in fresh medium with or without 500 nM Bafilomycin A1 for 6 hours. […]

intracellular peptide retention (% of initial uptake remaining) [2]: 35% | cytosolic fraction of internalized free peptide [4]: 7.36%±8.28%
Compound: CC(C)C[C@H](NC(=O)CNC(=O)[C@@H]1CCCN1C(=O)[C@H](CC(C)C)NC(=O)[C@@H]1CCCN1C(=O)[C@H](C)NC(=O)[C@H](COP(=O)(O)O)NC(=O)[C@H](C)NC(=O)[C@H](CCCNC(=N)N)NC(=O)[C@H](CCCNC(=N)N)NC(=O)[C@H](CC(C)C)NC(=O)[C@H](Cc1c[nH]c2ccccc12)NC(=O)[C@H](C)NC(=O)[C@H](CCCNC(=N)N)NC(=O)[C@H](C)NC(=O)[C@H](CCC(N)=O)NC(=O)[C@H](CCCNC(=N)N)NC(=O)[C@H](C)NC(=O)[C@H](C)NC(=O)[C@H](C)NC(=O)[C@H](CCCNC(=N)N)NC(=O)[C@H](C)NC(=O)[C@@H](N)Cc1ccc(O)cc1)C(=O)N[C@@H](CCCCN)C(=O)O [p-HSP20] (HELM PEPTIDE1{Y.A.R.A.A.A.R.Q.A.R.A.W.L.R.R.A.[O=C([C@H](COP(=O)(O)O)N[*:1])[*:2]].A.P.L.P.G.L.K}$$$$V2.0; N-terminus and C-terminus assumed)
viability at 2 h, 500 µM [1]: 77% | PE-induced HSV contraction [3]: significantly inhibited
